Laboratory results reported in patent publication US12465605B2, “Methods and materials for gender-dependent treatment of cardiovascular dysfunction” (Mayo Foundation for Medical Education and Research, priority 2019, dated 2025).

What was measured:
[1] = test system: canonical BMP signaling; test: BMP2-induced signaling in aortic valve interstitial cells; assay type: cell-based, mouse; details: cells treated with BMP2 with or without ataciguat
Protocol: To confirm that ataciguat effectively activated sGC in cells, mouse aortic valve interstitial cells (mVICs) were isolated from C57BL6/J mice treated with ataciguat or other sGC agonists as internal controls. […] To determine whether ataciguat could attenuate signaling cascades central to the initiation and progression of valve calcification in vitro, cells were treated with BMP2 with or without ataciguat. In these studies, ataciguat reduced phospho-SMAD1/5/8 signaling (e.g., canonical BMP signaling) as well as expression of osteogenic genes induced by BMP2 (e.g., osterix).

[2] = test system: ldlr^−/−/apoB^100/100 mice; test: ldlr-deficient, apoB100-only mice on western diet with established aortic valve disease (FCAVS); assay type: in vivo, mouse; details: for relative collagen fiber thicknesses: picrosirius red
Excerpt: Pre-clinical animal studies: ldlr^−/−/apoB^100/100 mice are low density lipoprotein receptor-deficient, apolipoprotein B100-only mice that consistently develop severe, hemodynamically significant calcific aortic valve stenosis. Thus, these mice develop stenosis in a manner suitable for studying the effects of pharmacological interventions on initiation and progression of calcific aortic valve stenosis.
Two groups of ldlr^−/−/apoB^100/100 mice were placed on Western Diet (WD) for six months, a time point that allowed the mice to develop mild-to-moderate valvular stenosis. At the six-month time point, mice were randomized into two groups: • (1) continued western diet (WD)/continued disease progression group, or • (2) continued western diet+ataciguat in food (WD+ATA)/treatment group.
At the nine-month time point, mice underwent echocardiography (high resolution ultrasound) and blood pressure (tail cuff) measurement, and were sacrificed for tissue and molecular analyses of valvular tissue (histology, immunohistochemistry, quantitative real-time RT-PCR).
A therapeutically-relevant treatment strategy in which ldlr-deficient, apoB100-only mice were fed a western diet for six months (to develop mild/moderate FCAVS) followed by western diet plus ataciguat (150 ppm mixed in food).

[3] = test system: patients with mild-to-moderate calcific aortic valve stenosis; test: Phase I clinical trial, 14 days, blood pressure and orthostatic tolerance; assay type: in vivo, human
Excerpt: Phase I clinical trial design: Patients with mild-to-moderate calcific aortic valve stenosis (valve area between 1.0 cm^2 and 2.0 cm^2) with well-preserved left ventricular function (ejection fraction>50%) were recruited for participation in a randomized, double-blind, placebo-controlled trial. After screening, patients were randomized into two groups: • (1) placebo treatment for 14 days, or • (2) ataciguat treatment for 14 days. Patients underwent a series of tests to assess baseline blood pressure (seated and supine body positions), orthostatic tolerance (transition to standing, tilt table testing), and blood tests to assess liver enzyme function.
Combining ataciguat's role as an activator of heme-free sGC with reports of increased systemic oxidative stress in patients with FCAVS (Mourino-Alvarez et al., Int. J Cardiol., 225:99-106 (2016)), it was conceivable that administration of ataciguat could elicit acute hypotension or increase propensity to experience orthostatic hypotension. To investigate this possibility, a randomized, double-blind, placebo-controlled, dose-escalation study was conducted to assess the effects of ataciguat on orthostatic tolerance using both a standing test (highly functional) and a tilt table test (highly sensitive).

[4] = test system: patients with mild-to-moderate calcific aortic valve stenosis; test: Phase II clinical trial, six months, progression of valve disease; assay type: in vivo, human
Excerpt: Phase II clinical trial design: Patients with mild-to-moderate calcific aortic valve stenosis (valve area between 1.0 cm^2 and 2.0 cm^2) with well-preserved left ventricular function (ejection fraction>50%) and significant valve calcification (calcium levels>300 units by computed tomography scanning) were recruited for participation in a randomized, double-blind, placebo-controlled trial. After screening, patients were randomized into two groups: • (1) placebo treatment for a minimum of 6 months, or • (2) ataciguat treatment for a minimum of 6 months Patients underwent computed tomography measurements of aortic valve calcification, echocardiographic assessments of ventricular and aortic valve function, and DEXA scanning for assessment of systemic bone mineral density at baseline and at six month intervals after initiation of treatment.
LPA studies in humans with aortic valve calcification: Human plasma LPA levels were measured using a colorimetric, sandwich/quantitative ELISA assay (AB212165) after samples were diluted in diluent buffer. Computed tomography scanning was performed using clinical grade, high-resolution scanning methods that are well-established for assessment of aortic valve calcification. The calcium burden was measured from 3-dimensional, multi-slice images and expressed as arbitrary units (AU).
To determine whether ataciguat could slow progression of FCAVS, a randomized, double-blind, placebo-controlled study was conducted in patients with mild/moderate valvular disease. Key eligibility criteria for the study included valvular calcium levels above 300 AU, a valve area between 1.0 and 2.0 cm^2, an ejection fraction greater than 50%, and absence of congenital heart valve disease (full inclusion/exclusion criteria is shown in TABLE 1). Patients were randomized to placebo or ataciguat treatment for six months, and a subset of patients received treatment for 12 months. Importantly, there was no difference in measured hemodynamic, blood biochemistry, drug treatment, or comorbidity indices between treatment groups at baseline. Given the relatively short duration of follow-up, the primary outcome variable was the change in valvular calcium over time. Secondary and tertiary outcomes were aortic valve and left ventricular function, respectively.

[5] = 14 days, vs pre-treatment or placebo
[6] = 200 mg/day, all subjects combined
[7] = 200 mg/day, both sexes combined

Question: Which “expression of osteogenic genes induced by BMP2 (e.g., osterix)” value [1] does the source give for O=C(Nc1ccc(S(=O)(=O)N2CCOCC2)cc1)c1cc(Cl)ccc1NS(=O)(=O)c1ccc(Cl)s1 [ataciguat, 5-chloro-2-[[(5-chloro-2-thienyl)sulfonyl]amino]-N-[4-(4-morpholinylsulfonyl)phenyl]-benzamide] here?
Answer: The value was “reduced”.

Question: And the “phospho-SMAD1/5/8 signaling (canonical BMP signaling)” value [1]?
Answer: The value was “reduced”.

Question: What about the ejection fraction ([2]; WD-fed mice, male and female) of the same compound?
Answer: The ejection fraction was “not improved further”.

Question: And the “canonical TGFβ signaling (SMAD2/3 phosphorylation) in valve tissue” value ([2]; both male and female mice)?
Answer: The value was “increased”.

Question: What about the “Col1a1 expression (mRNA)” value ([2]; female mice) of the same compound?
Answer: Its value is “significantly reduced”.

Question: What about the “expression of Col15a1 (mRNA)” value ([2]; female mice) of the same compound?
Answer: Its value is “tended to be reduced”.

Question: And the “relative collagen fiber thicknesses” value ([2]; female mice)?
Answer: The value was “increase the fraction of thinner fibers”.

Question: What about the “aortic valve function (cusp separation distance by echocardiography), male versus female” value ([2]; long-term treatment) of the same compound?
Answer: Its value is “only male mice received a therapeutic benefit”.

Question: And the “calcification in valve tissue” value ([2]; male and female animals)?
Answer: Its value is “reduced”.

Question: What about the “SMAD1/5/8 phosphorylation in valve tissue” value ([2]; male and female mice, three months) of the same compound?
Answer: Its value is “significantly attenuated”.

Question: What about the “markers of osteogenesis Runx2 and SPP1 (mRNA)” value ([2]; male and female mice, three months, RT-PCR) of the same compound?
Answer: Its value is “reduced”.

Question: And the “diastolic function (E/e′)” value ([2]; male mice)?
Answer: Its value is “significantly improved”.

Question: What about the “expression of Col15a1 (mRNA)” value ([2]; male mice) of the same compound?
Answer: The value was “increased”.

Question: What about the “expression of collagen 1a1 (mRNA)” value ([2]; male mice) of the same compound?
Answer: Its value is “did not significantly affect”.

Question: What about the “valvular calcium, male versus female” value ([2]; male mice compared with female mice) of the same compound?
Answer: The value was “Greater reductions in valvular calcium”.

Question: What about the “progression of valvular dysfunction and associated reductions in left ventricular diastolic function” value ([2]; male mice only, long-term treatment) of the same compound?
Answer: The value was “significantly attenuated”.

Question: What about the “relative collagen fiber thicknesses” value ([2]; male mice) of the same compound?
Answer: The value was “did not impact”.

Question: What about the MMP2 expression ([2]; male or female mice) of the same compound?
Answer: The MMP2 expression was “not altered”.

Question: And the “pVASP^239 in aortic valve tissue” value ([2]; mice of both genders, 150 ppm in food, immunohistochemistry)?
Answer: Its value is “significantly increased”.

Question: What about the blood pressure ([2]; mice of either gender, 150 ppm in food) of the same compound?
Answer: Its blood pressure is “did not alter”.

Question: What about the “expression of the SMAD2/3 target genes CTGF and COL1A1” value ([2]; only in female mice) of the same compound?
Answer: The value was “paradoxically reduced”.

Question: What about the “seated systolic and diastolic blood pressure” value ([3]; 100 mg/day, 14 days) of the same compound?
Answer: The value was “significantly reduced”.

Question: And the “seated systolic and diastolic blood pressure” value ([3]; 200 mg/day, 14 days)?
Answer: Its value is “did not have a significant effect”.

Question: What about the “supine systolic and diastolic blood pressure” value ([3]; 14 days) of the same compound?
Answer: Its value is “significantly reduced”.

Question: What about the “changes in heart rate upon standing” value ([3]; 14 days, seated to standing) of the same compound?
Answer: Its value is “did not significantly or consistently alter”.

Question: What about the “changes in systolic and diastolic blood pressure upon standing” value ([3]; 14 days, seated to standing) of the same compound?
Answer: Its value is “did not significantly or consistently alter”.

Question: What about the “blood pressure responses to head-up tilt” value [3, 5] of the same compound?
Answer: Its value is “did not consistently or significantly alter”.

Question: And the “heart rate responses to head-up tilt” value [3, 5]?
Answer: Its value is “did not consistently or significantly alter”.

Question: And the resting blood pressure ([3]; either dose, 14 days)?
Answer: Its resting blood pressure is “did not significantly alter”.

Question: And the “tolerability (side effects and blood pressure regulation)” value ([3]; humans)?
Answer: Its value is “well tolerated”.

Question: What about the “changes in aortic valve area, male versus female patients” value ([4]; 200 mg/day) of the same compound?
Answer: The value was “therapeutic benefit was predominantly conferred to male patients”.

Question: What about the “changes in peak transvalvular velocity” value ([4]; 200 mg/day) of the same compound?
Answer: The value was “negligible impact”.

Question: And the “aortic pulse pressure (index of arterial stiffness), seated” value [4, 6]?
Answer: Its value is “attenuated”.

Question: What about the “left ventricular diastolic function (E/e′ or E/A ratio)” value [4, 6] of the same compound?
Answer: Its value is “attenuate further progression of diastolic dysfunction”.

Question: And the “left ventricular systolic function (ejection fraction or stroke volume)” value [4, 6]?
Answer: The value was “prevent the decline in left ventricular function”.

Question: What about the “changes in aortic valve area” value [4, 7] of the same compound?
Answer: The value was “can attenuate progression of aortic valve dysfunction”.

Question: What about the “progression of valve calcification” value [4, 7] of the same compound?
Answer: The value was “significantly attenuated”.

Question: And the “left ventricular stroke volume” value ([4]; 200 mg/day, female subjects)?
Answer: The value was “potential worsening”.

Question: What about the “left ventricular systolic function” value ([4]; 200 mg/day, female subjects) of the same compound?
Answer: Its value is “no consistent benefit”.

Question: What about the “left ventricular diastolic function (E/e′ or E/A ratio)” value ([4]; 200 mg/day, females) of the same compound?
Answer: Its value is “negligible therapeutic benefit”.

Question: What about the pulse pressure ([4]; 200 mg/day, females) of the same compound?
Answer: The pulse pressure was “no apparent therapeutic benefit”.

Question: And the “progression of valve calcification, male versus female patients” value ([4]; 200 mg/day, male patients compared to females)?
Answer: Its value is “much greater therapeutic benefit”.

Question: And the “left ventricular diastolic function (E/e′ or E/A ratio)” value ([4]; 200 mg/day, male subjects)?
Answer: The value was “predominant recipients of any therapeutic benefit”.

Question: What about the “left ventricular systolic function (ejection fraction or stroke volume)” value ([4]; 200 mg/day, male subjects) of the same compound?
Answer: Its value is “improved left ventricular systolic function”.

Question: And the pulse pressure ([4]; males, compared to placebo)?
Answer: Its pulse pressure is “reduction in pulse pressure”.

Question: And the “aortic valve function vs baseline” value ([4]; p=0.24 vs baseline)?
Answer: Its value is “did not worsen significantly”.

Question: What about the “changes in valvular calcium in relation to baseline plasma LPA” value ([4]; patients with higher vs lower baseline plasma LPA) of the same compound?
Answer: The value was “tended to receive greater therapeutic benefit”.
